# Measurements reported in patent US7118895B2, “Process for producing aglycon by using diglycosidase and flavor-improved food containing the aglycon and converting agent to be used in the process” (Amano Enzyme Inc., priority 2000, dated 2006).
# Tested on: Crude diglycosidase
# Experiment: Examination of pH in the conversion into isoflavone aglycons by diglycosidase using soybean materials
# Assay type: biochemical, Penicillium multicolor IAM7153
# Settings: for Decomposition efficiency of glycitin family in roasted soy flour / Decomposition efficiency of glycitin family in soymilk / existing ratio of aglycon of each isoflavone family: 55° C.
# How it was run: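 Each soybean material (50 mg) is suspended and set to a pH between 2 and 11. Crude diglycosidase, adjusted to 1.88 AU/mL in enzyme solution of the same pH, is added, and the mixture is incubated at 55° C. Ethanol is added at 0, 1, 3 and 6 h, then supernatants go to HPLC.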
# [1] = pH6.6, heat treatment of enzyme: no, reaction time 0 h
# [2] = pH6.6, heat treatment of enzyme: no, reaction time 1 h
# [3] = pH6.6, heat treatment of enzyme: no, reaction time 3 h
# [4] = pH6.6, heat treatment of enzyme: no, reaction time 6 h
# [5] = pH6.6, heat treatment of enzyme: yes, reaction time 6 h
compound,measurement,setting,value
COc1cc2c(=O)c(-c3ccc(O)cc3)coc2cc1O [glycitein],Decomposition efficiency of glycitin family in roasted soy flour,"pH5, heat treatment of enzyme no, reaction time 0 h",8.6
same,Decomposition efficiency of glycitin family in roasted soy flour,"pH5, heat treatment of enzyme no, reaction time 1 h",77.1
same,Decomposition efficiency of glycitin family in roasted soy flour,"pH5, heat treatment of enzyme no, reaction time 3 h",93.5
same,Decomposition efficiency of glycitin family in roasted soy flour,"pH5, heat treatment of enzyme no, reaction time 6 h",100.0
same,Decomposition efficiency of glycitin family in roasted soy flour,"pH5, heat treatment of enzyme yes, reaction time 6 h",9.4
same,Decomposition efficiency of glycitin family in concentrated soybean protein,"pH5.1, heat treatment of enzyme: no, reaction time 0 h",11.1%
same,Decomposition efficiency of glycitin family in concentrated soybean protein,"pH5.1, heat treatment of enzyme: no, reaction time 1 h",62.1%
same,Decomposition efficiency of glycitin family in concentrated soybean protein,"pH5.1, heat treatment of enzyme: no, reaction time 3 h",73.4%
same,Decomposition efficiency of glycitin family in concentrated soybean protein,"pH5.1, heat treatment of enzyme: no, reaction time 6 h",78.5%
same,Decomposition efficiency of glycitin family in concentrated soybean protein,"pH5.1, heat treatment of enzyme: yes, reaction time 6 h",11.5%
same,Decomposition efficiency of glycitin family in defatted soybean,"pH5.4, heat treatment of enzyme: no, reaction time 0 h",36.0%
same,Decomposition efficiency of glycitin family in defatted soybean,"pH5.4, heat treatment of enzyme: no, reaction time 1 h",54.9%
same,Decomposition efficiency of glycitin family in defatted soybean,"pH5.4, heat treatment of enzyme: no, reaction time 3 h",not detected
same,Decomposition efficiency of glycitin family in defatted soybean,"pH5.4, heat treatment of enzyme: no, reaction time 6 h",67.7%
same,Decomposition efficiency of glycitin family in defatted soybean,"pH5.4, heat treatment of enzyme: yes, reaction time 6 h",60.7%
same,Decomposition efficiency of glycitin family in soymilk,"pH6.2, heat treatment of enzyme no, reaction time 0 h",6.2
same,Decomposition efficiency of glycitin family in soymilk,"pH6.2, heat treatment of enzyme no, reaction time 1 h",53.6
same,Decomposition efficiency of glycitin family in soymilk,"pH6.2, heat treatment of enzyme no, reaction time 3 h",65.5
same,Decomposition efficiency of glycitin family in soymilk,"pH6.2, heat treatment of enzyme no, reaction time 6 h",70.4
same,Decomposition efficiency of glycitin family in soymilk,"pH6.2, heat treatment of enzyme yes, reaction time 6 h",8.2
same,Decomposition efficiency of glycitin family in roasted soy flour,"pH6.5, heat treatment of enzyme no, reaction time 0 h",8.8
same,Decomposition efficiency of glycitin family in roasted soy flour,"pH6.5, heat treatment of enzyme no, reaction time 1 h",65.0
same,Decomposition efficiency of glycitin family in roasted soy flour,"pH6.5, heat treatment of enzyme no, reaction time 3 h",80.3
same,Decomposition efficiency of glycitin family in roasted soy flour,"pH6.5, heat treatment of enzyme no, reaction time 6 h",88.1
same,Decomposition efficiency of glycitin family in roasted soy flour,"pH6.5, heat treatment of enzyme yes, reaction time 6 h",9.8
same,Decomposition efficiency of glycitin family in concentrated soybean protein,[1],11.3%
same,Decomposition efficiency of glycitin family in defatted soybean,[1],60.4%
same,Decomposition efficiency of glycitin family in concentrated soybean protein,[2],42.2%
same,Decomposition efficiency of glycitin family in defatted soybean,[2],47.1%
same,Decomposition efficiency of glycitin family in concentrated soybean protein,[3],60.3%
same,Decomposition efficiency of glycitin family in defatted soybean,[3],46.4%
same,Decomposition efficiency of glycitin family in concentrated soybean protein,[4],68.1%
same,Decomposition efficiency of glycitin family in defatted soybean,[4],41.9%
same,Decomposition efficiency of glycitin family in concentrated soybean protein,[5],11.1%
same,Decomposition efficiency of glycitin family in defatted soybean,[5],49.7%
same,Decomposition efficiency of glycitin family in soymilk,"pH7.2, heat treatment of enzyme no, reaction time 0 h",6.1
same,Decomposition efficiency of glycitin family in soymilk,"pH7.2, heat treatment of enzyme no, reaction time 1 h",51.2
same,Decomposition efficiency of glycitin family in soymilk,"pH7.2, heat treatment of enzyme no, reaction time 3 h",53.8
same,Decomposition efficiency of glycitin family in soymilk,"pH7.2, heat treatment of enzyme no, reaction time 6 h",58.4
same,Decomposition efficiency of glycitin family in soymilk,"pH7.2, heat treatment of enzyme yes, reaction time 6 h",5.6
same,Decomposition efficiency of glycitin family in defatted soybean,"pH7.8, heat treatment of enzyme: no, reaction time 0 h",33.2%
same,Decomposition efficiency of glycitin family in defatted soybean,"pH7.8, heat treatment of enzyme: no, reaction time 1 h",42.5%
same,Decomposition efficiency of glycitin family in defatted soybean,"pH7.8, heat treatment of enzyme: no, reaction time 3 h",46.8%
same,Decomposition efficiency of glycitin family in defatted soybean,"pH7.8, heat treatment of enzyme: no, reaction time 6 h",50.9%
same,Decomposition efficiency of glycitin family in defatted soybean,"pH7.8, heat treatment of enzyme: yes, reaction time 6 h",44.2%
same,Decomposition efficiency of glycitin family in roasted soy flour,"pH8.5, heat treatment of enzyme no, reaction time 0 h",9.6
same,Decomposition efficiency of glycitin family in roasted soy flour,"pH8.5, heat treatment of enzyme no, reaction time 1 h",28.2
same,Decomposition efficiency of glycitin family in roasted soy flour,"pH8.5, heat treatment of enzyme no, reaction time 3 h",40.1
same,Decomposition efficiency of glycitin family in roasted soy flour,"pH8.5, heat treatment of enzyme no, reaction time 6 h",47.4
same,Decomposition efficiency of glycitin family in roasted soy flour,"pH8.5, heat treatment of enzyme yes, reaction time 6 h",9.1
same,Decomposition efficiency of glycitin family in concentrated soybean protein,"pH8.6, heat treatment of enzyme: no, reaction time 0 h",11.7%
same,Decomposition efficiency of glycitin family in concentrated soybean protein,"pH8.6, heat treatment of enzyme: no, reaction time 1 h",15.4%
same,Decomposition efficiency of glycitin family in concentrated soybean protein,"pH8.6, heat treatment of enzyme: no, reaction time 3 h",21.0%
same,Decomposition efficiency of glycitin family in concentrated soybean protein,"pH8.6, heat treatment of enzyme: no, reaction time 6 h",30.9%
same,Decomposition efficiency of glycitin family in concentrated soybean protein,"pH8.6, heat treatment of enzyme: yes, reaction time 6 h",11.3%
same,Decomposition efficiency of glycitin family in soymilk,"pH11.6, heat treatment of enzyme no, reaction time 0 h",6.2
same,Decomposition efficiency of glycitin family in soymilk,"pH11.6, heat treatment of enzyme no, reaction time 1 h",49.6
same,Decomposition efficiency of glycitin family in soymilk,"pH11.6, heat treatment of enzyme no, reaction time 3 h",53.5
same,Decomposition efficiency of glycitin family in soymilk,"pH11.6, heat treatment of enzyme no, reaction time 6 h",56.0
same,Decomposition efficiency of glycitin family in soymilk,"pH11.6, heat treatment of enzyme yes, reaction time 6 h",5.8
same,existing ratio of aglycon of each isoflavone family,"roasted soy flour, pH 4 for 6 hours",100%
same,existing ratio of aglycon of each isoflavone family,"soymilk, pH 3.5 for 6 hours",100%
